Assay [1] deals with Maternal embryonic leucine zipper kinase (Homo sapiens) (UniProt Q14680). Description: Inhibition of GST tagged human MELK expressed in baculovirus expression system at 10 uM after 1 hr by Z'-LYTE assay relative to control.
The subject of the next assay is HL-60. The assay is described as follows: Cytotoxicity against human HL60 cells up to 10 uM. It counts as functional, cell-based.
Assay [2] concerns the target T1, Ribosomal protein S6 kinase alpha-3 (Homo sapiens, UniProt P51812). The assay is described as follows: Inhibition of His-tagged recombinant human RSK2 expressed in baculovirus expression system after 1 hr by Z'-LYTE assay.
Assay [3] concerns the target T2, Glycogen synthase kinase-3 alpha (Homo sapiens, UniProt P49840). Description: Inhibition of N-Terminal GST tagged human GSK3A expressed in baculovirus expression system after 1 hr by Z'-LYTE assay.
Target sequence in this assay (P49840 whole entry): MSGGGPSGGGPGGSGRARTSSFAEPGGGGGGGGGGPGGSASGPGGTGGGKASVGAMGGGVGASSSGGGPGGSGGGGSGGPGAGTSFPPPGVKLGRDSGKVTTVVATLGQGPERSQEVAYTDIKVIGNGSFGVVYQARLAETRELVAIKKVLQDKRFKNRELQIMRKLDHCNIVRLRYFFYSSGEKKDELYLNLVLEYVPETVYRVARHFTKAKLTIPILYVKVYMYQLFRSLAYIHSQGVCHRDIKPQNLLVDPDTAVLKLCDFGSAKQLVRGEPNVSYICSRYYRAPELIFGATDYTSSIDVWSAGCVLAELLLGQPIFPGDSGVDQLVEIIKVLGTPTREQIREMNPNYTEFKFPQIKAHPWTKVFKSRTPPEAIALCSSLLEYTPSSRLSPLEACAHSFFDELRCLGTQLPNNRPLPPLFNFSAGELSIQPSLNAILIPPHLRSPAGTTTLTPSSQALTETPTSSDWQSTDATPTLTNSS
The target in assay [4] is T1, Ribosomal protein S6 kinase alpha-3. The assay is described as follows: Inhibition of His-tagged recombinant human RSK2 expressed in baculovirus expression system at 10 uM after 1 hr by Z'-LYTE assay relative to control.
The target of assay [5] is MAP kinase-activated protein kinase 2 (Homo sapiens) (UniProt P49137). Description: Inhibition of His-tagged human MAPKAPK2 expressed in Escherichia coli at 10 uM after 1 hr by Z'-LYTE assay relative to control.
Sequence of MAP kinase-activated protein kinase 2 (Homo sapiens) (P49137 whole entry, looked up): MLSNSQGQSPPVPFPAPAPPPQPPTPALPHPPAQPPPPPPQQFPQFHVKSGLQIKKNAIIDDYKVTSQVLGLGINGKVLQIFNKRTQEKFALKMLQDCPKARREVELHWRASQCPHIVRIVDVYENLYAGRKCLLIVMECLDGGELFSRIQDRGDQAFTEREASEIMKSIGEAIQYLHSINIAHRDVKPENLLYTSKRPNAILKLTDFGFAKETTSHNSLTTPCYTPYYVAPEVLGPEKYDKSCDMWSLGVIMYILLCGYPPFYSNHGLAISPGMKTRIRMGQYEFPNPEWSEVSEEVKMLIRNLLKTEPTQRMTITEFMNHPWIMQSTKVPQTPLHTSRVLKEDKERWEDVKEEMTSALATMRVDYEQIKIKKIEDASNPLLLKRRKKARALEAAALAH
For assay [6], the target named is MAP kinase-activated protein kinase 3 (Homo sapiens) (UniProt Q16644). The assay is described as follows: Inhibition of His-tagged human MAPKAPK3 expressed in baculovirus expression system at 10 uM after 1 hr by Z'-LYTE assay relative to control.
Sequence of MAP kinase-activated protein kinase 3 (Homo sapiens) (Q16644 whole entry, looked up): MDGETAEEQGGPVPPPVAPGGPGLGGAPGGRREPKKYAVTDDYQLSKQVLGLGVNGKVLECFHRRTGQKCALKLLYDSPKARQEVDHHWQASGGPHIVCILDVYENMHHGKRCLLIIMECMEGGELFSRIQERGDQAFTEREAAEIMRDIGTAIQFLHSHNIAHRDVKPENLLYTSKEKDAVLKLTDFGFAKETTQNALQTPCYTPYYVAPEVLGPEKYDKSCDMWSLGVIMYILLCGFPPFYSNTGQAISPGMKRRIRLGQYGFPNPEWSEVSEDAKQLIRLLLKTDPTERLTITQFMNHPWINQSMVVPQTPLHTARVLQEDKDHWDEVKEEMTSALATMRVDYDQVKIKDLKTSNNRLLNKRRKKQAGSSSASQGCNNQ
The subject of another assay is Staphylococcus aureus. Description: Antibacterial activity against Staphylococcus aureus up to 100 ug/ml. In kind it is functional, organism-based.
The subject of another assay is Saccharomyces cerevisiae. Description: Antifungal activity against Saccharomyces cerevisiae. It counts as functional, organism-based.
In assay [7] the target is T3, Mitogen-activated protein kinase 14 (Homo sapiens, UniProt Q16539). Description: Inhibition of human MAPK14 expressed in Escherichia coli at 10 uM after 1 hr by Z'-LYTE assay relative to control.
T3 sequence (Q16539 whole entry): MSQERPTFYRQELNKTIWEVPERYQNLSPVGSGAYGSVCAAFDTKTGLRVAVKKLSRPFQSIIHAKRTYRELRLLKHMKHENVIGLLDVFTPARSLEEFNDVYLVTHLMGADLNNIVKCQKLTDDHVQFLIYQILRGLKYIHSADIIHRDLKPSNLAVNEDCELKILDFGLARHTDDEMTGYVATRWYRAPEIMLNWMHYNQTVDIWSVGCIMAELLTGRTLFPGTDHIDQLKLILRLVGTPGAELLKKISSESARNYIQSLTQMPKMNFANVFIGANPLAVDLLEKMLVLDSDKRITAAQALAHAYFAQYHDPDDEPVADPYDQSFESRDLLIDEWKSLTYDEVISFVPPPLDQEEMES
In assay [8] the target is T3, Mitogen-activated protein kinase 14. The assay is described as follows: Inhibition of human MAPK14 expressed in Escherichia coli after 1 hr by Z'-LYTE assay.
In assay [9] the target is Glycogen synthase kinase-3 beta (Homo sapiens) (UniProt P49841). Description: Inhibition of N-Terminal His tagged human GSK3B expressed in baculovirus expression system at 10 uM after 1 hr by Z'-LYTE assay relative to control.
Sequence of Glycogen synthase kinase-3 beta (Homo sapiens) (P49841 whole entry, looked up): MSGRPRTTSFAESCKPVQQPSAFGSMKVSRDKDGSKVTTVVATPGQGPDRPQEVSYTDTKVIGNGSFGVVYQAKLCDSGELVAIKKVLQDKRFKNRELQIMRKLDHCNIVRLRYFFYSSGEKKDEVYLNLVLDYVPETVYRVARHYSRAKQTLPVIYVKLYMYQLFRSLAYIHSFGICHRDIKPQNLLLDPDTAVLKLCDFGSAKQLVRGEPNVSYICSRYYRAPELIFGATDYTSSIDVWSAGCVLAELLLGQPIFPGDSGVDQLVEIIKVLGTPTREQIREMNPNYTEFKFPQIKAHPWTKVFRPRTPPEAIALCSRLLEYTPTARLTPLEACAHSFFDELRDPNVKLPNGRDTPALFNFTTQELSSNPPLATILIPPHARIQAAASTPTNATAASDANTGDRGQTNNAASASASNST
Assay [10] has as its target T2, Glycogen synthase kinase-3 alpha. The assay is described as follows: Inhibition of N-Terminal GST tagged human GSK3A expressed in baculovirus expression system at 10 uM after 1 hr by Z'-LYTE assay relative to control.
Target sequence in this assay (P49840 2-483 limits assumed): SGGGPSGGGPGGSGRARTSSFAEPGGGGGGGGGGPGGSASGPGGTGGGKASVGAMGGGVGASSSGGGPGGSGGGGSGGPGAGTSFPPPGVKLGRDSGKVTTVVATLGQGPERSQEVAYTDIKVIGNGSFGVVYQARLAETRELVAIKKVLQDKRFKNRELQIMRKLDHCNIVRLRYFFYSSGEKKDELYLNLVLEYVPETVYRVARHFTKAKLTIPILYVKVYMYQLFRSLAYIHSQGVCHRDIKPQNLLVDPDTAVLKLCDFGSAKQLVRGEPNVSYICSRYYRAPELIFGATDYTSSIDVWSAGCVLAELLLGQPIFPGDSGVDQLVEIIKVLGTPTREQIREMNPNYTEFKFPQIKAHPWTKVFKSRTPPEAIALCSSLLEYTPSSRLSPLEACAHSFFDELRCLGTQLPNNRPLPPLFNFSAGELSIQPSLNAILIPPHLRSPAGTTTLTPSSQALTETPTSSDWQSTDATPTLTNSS

The source made the active and inactive calls. No cut-off for these calls is given here.

T1 sequence (P51812 whole entry): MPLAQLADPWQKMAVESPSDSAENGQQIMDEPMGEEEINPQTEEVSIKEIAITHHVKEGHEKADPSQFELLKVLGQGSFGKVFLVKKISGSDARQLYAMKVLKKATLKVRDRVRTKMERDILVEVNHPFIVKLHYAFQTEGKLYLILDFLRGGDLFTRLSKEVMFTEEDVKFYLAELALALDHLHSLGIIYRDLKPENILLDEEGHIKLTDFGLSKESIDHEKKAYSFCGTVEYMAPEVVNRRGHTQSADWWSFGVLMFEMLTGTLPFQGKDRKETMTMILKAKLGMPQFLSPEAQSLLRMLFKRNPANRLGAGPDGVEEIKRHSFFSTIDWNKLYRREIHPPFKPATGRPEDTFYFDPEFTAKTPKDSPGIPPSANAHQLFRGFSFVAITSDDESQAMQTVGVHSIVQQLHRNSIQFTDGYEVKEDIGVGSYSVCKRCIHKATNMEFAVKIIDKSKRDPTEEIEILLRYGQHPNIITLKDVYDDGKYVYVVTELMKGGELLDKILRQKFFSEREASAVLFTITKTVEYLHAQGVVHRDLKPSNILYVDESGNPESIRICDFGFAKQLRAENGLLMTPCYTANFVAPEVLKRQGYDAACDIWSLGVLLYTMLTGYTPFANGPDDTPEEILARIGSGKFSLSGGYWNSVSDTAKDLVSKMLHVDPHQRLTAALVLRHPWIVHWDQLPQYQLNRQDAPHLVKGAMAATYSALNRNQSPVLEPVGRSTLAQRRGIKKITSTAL
Sequence of Maternal embryonic leucine zipper kinase (Homo sapiens) (Q14680 whole entry, looked up): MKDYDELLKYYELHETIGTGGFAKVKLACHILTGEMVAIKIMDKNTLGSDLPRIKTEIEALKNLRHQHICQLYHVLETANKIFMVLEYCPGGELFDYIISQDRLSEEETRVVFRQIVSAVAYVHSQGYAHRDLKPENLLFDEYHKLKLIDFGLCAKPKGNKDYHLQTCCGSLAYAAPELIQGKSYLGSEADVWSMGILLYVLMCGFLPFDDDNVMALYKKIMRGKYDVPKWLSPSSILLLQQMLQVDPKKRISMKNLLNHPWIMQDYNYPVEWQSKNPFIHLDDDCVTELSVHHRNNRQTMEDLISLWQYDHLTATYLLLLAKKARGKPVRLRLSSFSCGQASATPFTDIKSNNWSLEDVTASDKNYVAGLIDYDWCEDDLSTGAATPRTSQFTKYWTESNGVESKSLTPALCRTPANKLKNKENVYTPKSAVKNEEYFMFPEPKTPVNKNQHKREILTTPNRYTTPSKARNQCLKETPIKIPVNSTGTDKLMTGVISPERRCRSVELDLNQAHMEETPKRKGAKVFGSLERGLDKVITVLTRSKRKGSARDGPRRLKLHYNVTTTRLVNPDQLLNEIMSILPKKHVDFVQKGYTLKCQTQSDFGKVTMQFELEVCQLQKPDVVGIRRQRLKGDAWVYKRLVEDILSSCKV

Take `Nc1nc2c(ncn2[C@@H]2O[C@H](COC(=O)c3cc[nH]c3)[C@@H](O)[C@H]2O)c(=O)[nH]1`: the inhibition – broadly, the drop in the measured response relative to a control, in per cent – in assay [1] is 87%; in assay [4], 93%; in assay [5], 82%; in assay [6] it was 99%; in [7], 84%; in assay [9], 96%. Also, the inhibition in [10] turned out to be 93%. Moreover, the result in the assay with HL-60, in the assay with Staphylococcus aureus and in the assay with Saccharomyces cerevisiae was inactive. Moreover, the half-maximal inhibitory concentration (IC50) (usually the point on the concentration scale where inhibition reaches its midpoint) in assay [2] was found to be 680 nM; in [3], 670 nM; in assay [8], 990 nM.
Consider `Nc1ncnc2c1ncn2[C@@H]1O[C@H](COC(=O)c2cc[nH]c2)[C@@H](O)[C@H]1O`, for which the inhibition in assay [1] came to 98%; in assay [4], 94%; in [5] it was 87%; in assay [6], 98%; in assay [7], 95%; in assay [9], 98%. The inhibition in [10] was determined as 101%. In addition, the result with HL-60, in the assay with Staphylococcus aureus and in the assay on Saccharomyces cerevisiae was inactive. Also, the half-inhibitory concentration (IC50) in assay [2] is 970 nM; in assay [3] it was 1000 nM; in assay [8], 1710 nM.
Consider `Nc1nc2c(ncn2[C@@H]2O[C@H](COC(=O)c3ccc[nH]3)[C@@H](O)[C@H]2O)c(=O)[nH]1`, for which the inhibition in assay [1] stood at 96%; in [4], 96%; in assay [5], 88%; in assay [6], 101%; in [7], 93%; in assay [9], 98%. Also, the inhibition in assay [10] was 98%. Also, the outcome in the assay on HL-60, in the assay on Staphylococcus aureus and in the assay on Saccharomyces cerevisiae was inactive. The concentration for half-maximal inhibition (IC50) in assay [2] amounted to 660 nM; in assay [3], 710 nM; in [8], 950 nM.
With `O=C(OC[C@H]1O[C@@H](n2cnc3c(=O)[nH]cnc32)[C@H](O)[C@@H]1O)c1cc[nH]c1`, the inhibition in [1] was determined as 97%; in assay [4], 95%; in assay [5] it was 89%; in assay [6], 100%; in [7] it was 95%; in assay [9], 99%. Also, the inhibition in [10] stood at 100%. Also, the outcome in the assay on HL-60, in the assay with Staphylococcus aureus and in the assay with Saccharomyces cerevisiae was inactive. Besides, the IC50 in assay [2] came out at 640 nM; in assay [3] it was 610 nM; in [8] it was 870 nM.
Regarding `Nc1ncnc2c1ncn2[C@@H]1O[C@H](COC(=O)c2ccc[nH]2)[C@@H](O)[C@H]1O`, the inhibition in [1] was 95%; in [4], 96%; in assay [5], 95%; in [6] it was 98%; in assay [7], 95%; in [9], 100%. In addition, the inhibition in [10] was 99%. Besides, the result in the assay with HL-60, in the assay on Staphylococcus aureus and in the assay with Saccharomyces cerevisiae was inactive. Besides, the values for the IC50 in assay [2], in [3] and in assay [8] were 800 nM, 890 nM and 1000 nM, respectively.
`O=C(OC[C@H]1O[C@@H](n2cnc3c(=O)[nH]cnc32)[C@H](O)[C@@H]1O)c1ccc[nH]1`: the inhibition in [1] turned out to be 97%; in assay [4], 102%; in [5] it was 42%; in assay [6], 83%; in [7] it was 95%; in assay [9], 94%. In assay [10], the inhibition is 94%. The outcome in the assay with HL-60, with Staphylococcus aureus and in the assay on Saccharomyces cerevisiae was inactive. Further, the figures for the half-inhibitory concentration (IC50) in assay [2], in assay [3] and in [8] were 230 nM, 1110 nM and 1320 nM, respectively.

These data come from ChEMBL document CHEMBL4602660, “Kinase-Inhibitory Nucleoside Derivatives from the Pacific Bryozoan Nelliella nelliiformis” (J Nat Prod, 2020).
